Measurements as given in ChEMBL document CHEMBL1142451, “The molecular interactions of buspirone analogues with the serotonin transporter” (Bioorg Med Chem, 2008).

Legend:
[1] = target: Sodium-dependent serotonin transporter (Homo sapiens, UniProt P31645); assay: Displacement of [3H]5-HT from human SERT
[2] = target: Sodium-dependent serotonin transporter (Rattus norvegicus, UniProt P31652); assay: Displacement of [3H]5-HT from SERT in rat cerebral cortex synaptosome membrane; format: tissue-based, Brain
Sequence of Sodium-dependent serotonin transporter (Rattus norvegicus, UniProt P31652) (P31652 whole entry): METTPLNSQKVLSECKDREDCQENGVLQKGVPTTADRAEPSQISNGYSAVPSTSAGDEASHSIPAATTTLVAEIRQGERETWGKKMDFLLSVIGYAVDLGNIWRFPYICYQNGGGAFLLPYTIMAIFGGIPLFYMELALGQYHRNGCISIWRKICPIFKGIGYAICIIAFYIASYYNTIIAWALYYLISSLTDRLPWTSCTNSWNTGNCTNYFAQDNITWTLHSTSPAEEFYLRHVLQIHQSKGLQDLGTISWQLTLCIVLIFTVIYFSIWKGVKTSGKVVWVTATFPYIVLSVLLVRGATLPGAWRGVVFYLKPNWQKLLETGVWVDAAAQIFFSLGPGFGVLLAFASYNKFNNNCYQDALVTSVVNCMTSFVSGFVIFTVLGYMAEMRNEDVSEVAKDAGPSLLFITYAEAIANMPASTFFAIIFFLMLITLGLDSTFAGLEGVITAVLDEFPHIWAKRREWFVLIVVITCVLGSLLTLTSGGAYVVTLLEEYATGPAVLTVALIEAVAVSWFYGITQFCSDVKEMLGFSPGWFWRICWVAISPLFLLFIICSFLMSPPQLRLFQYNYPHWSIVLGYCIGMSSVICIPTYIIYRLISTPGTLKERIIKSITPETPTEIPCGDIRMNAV

Sequence of Sodium-dependent serotonin transporter (Homo sapiens, UniProt P31645) (P31645 whole entry): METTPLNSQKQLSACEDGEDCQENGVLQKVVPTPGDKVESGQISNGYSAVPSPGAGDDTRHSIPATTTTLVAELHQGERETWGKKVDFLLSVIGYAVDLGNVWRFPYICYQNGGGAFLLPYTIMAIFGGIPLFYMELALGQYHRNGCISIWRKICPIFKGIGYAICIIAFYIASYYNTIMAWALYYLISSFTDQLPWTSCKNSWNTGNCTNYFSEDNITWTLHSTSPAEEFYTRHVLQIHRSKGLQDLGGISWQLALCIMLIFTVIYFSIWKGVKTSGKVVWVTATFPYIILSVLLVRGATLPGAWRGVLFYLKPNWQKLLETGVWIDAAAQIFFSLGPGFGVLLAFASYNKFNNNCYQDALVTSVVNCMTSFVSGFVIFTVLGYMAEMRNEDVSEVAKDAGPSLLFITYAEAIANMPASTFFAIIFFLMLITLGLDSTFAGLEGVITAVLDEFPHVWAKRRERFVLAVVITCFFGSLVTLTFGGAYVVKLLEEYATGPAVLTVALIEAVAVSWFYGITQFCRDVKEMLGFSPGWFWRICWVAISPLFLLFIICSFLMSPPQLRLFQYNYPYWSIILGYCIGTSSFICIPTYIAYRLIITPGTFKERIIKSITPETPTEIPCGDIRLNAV

SMILES | IC50 [1] | IC50 [2]
CC1CN(c2ccc3ccccc3n2)CCN1CCCCN1C(=O)c2ccccc2C1=O (stereo not drawn) | 8 nM | 33 nM
CC1CN(c2ccc3ccccc3n2)CCN1CCCN1C(=O)c2ccccc2C1=O (stereo not drawn) | 80 nM | –
O=C1c2ccccc2C(=O)N1CCCCN1CCN(c2ccc3ccccc3n2)CC1 | – | 95 nM
CC1CN(c2ccc3ccccc3n2)CCN1CCCCN1C(=O)CC2(CCCC2)CC1=O (stereo not drawn) | – | 75 nM
CC1(C)CC(=O)N(CCCCN2CCN(c3ccc4ccccc4n3)CC2)C(=O)C1 | – | 146 nM
O=C1CC2(CCCC2)CC(=O)N1CCCCN1CCN(c2ccc3ccccc3n2)CC1 | – | 112 nM
CC1CN(c2ccc3ccccc3n2)CCN1CCCCN1C(=O)CCCC1=O (stereo not drawn) | 50 nM | –
